Test results taken from ChEMBL document CHEMBL5696441 (Nat Chem Biol, 2011).

Key:
[1] = target: Serine/threonine-protein kinase 4 (Homo sapiens) (UniProt Q13043); assay: Inhibition of human MST1 assessed as residual activity at 1 uM using RB-CTF as substrate in presence of 33P-ATP by ProQinase assay relative to control
[2] = target: Ribosomal protein S6 kinase alpha-1 (Homo sapiens) (UniProt Q15418); assay: Inhibition of C-terminal kinase domain RPS6KA1 (unknown origin) assessed as remaining activity at 1 uM by Kinome scan method relative to control
[3] = target: T1, cGMP-dependent protein kinase 2 (Homo sapiens) (UniProt Q13237); assay: Inhibition of human PRKG2 assessed as residual activity at 1 uM using RBER-GSK3(14-27) as substrate in presence of 33P-ATP by ProQinase assay relative to control
T1 sequence (whole entry): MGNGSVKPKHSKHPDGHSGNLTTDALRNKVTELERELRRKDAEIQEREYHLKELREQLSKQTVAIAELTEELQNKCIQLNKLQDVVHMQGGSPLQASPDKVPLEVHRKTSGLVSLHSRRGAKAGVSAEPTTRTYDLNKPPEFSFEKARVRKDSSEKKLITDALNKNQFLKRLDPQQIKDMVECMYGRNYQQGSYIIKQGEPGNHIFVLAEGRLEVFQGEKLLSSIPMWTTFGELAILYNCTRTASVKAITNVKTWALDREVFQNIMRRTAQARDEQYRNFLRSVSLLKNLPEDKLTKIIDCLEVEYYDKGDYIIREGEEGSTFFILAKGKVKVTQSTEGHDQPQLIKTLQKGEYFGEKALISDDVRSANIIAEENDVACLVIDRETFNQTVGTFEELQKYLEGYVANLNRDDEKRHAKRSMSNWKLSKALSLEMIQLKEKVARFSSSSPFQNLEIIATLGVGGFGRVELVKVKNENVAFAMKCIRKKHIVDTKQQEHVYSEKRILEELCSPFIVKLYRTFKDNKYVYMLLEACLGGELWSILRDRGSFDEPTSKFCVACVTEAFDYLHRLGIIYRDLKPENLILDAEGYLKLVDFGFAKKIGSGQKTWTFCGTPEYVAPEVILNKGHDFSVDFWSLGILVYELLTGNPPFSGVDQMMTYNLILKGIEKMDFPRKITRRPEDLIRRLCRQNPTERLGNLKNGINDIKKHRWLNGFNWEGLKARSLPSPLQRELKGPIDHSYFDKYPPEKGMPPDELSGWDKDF

[4] = system: Mast/stem cell growth factor receptor Kit (Homo sapiens), P10721 [V559D,V654A]; assay: Inhibition of KIT V559D/V654A mutant (unknown origin) assessed as remaining activity at 1 uM by Kinome scan method relative to control
Chain of Mast/stem cell growth factor receptor Kit (Homo sapiens), P10721 [V559D,V654A] (P10721 whole entry V559D/V654A, the tested form may be a part): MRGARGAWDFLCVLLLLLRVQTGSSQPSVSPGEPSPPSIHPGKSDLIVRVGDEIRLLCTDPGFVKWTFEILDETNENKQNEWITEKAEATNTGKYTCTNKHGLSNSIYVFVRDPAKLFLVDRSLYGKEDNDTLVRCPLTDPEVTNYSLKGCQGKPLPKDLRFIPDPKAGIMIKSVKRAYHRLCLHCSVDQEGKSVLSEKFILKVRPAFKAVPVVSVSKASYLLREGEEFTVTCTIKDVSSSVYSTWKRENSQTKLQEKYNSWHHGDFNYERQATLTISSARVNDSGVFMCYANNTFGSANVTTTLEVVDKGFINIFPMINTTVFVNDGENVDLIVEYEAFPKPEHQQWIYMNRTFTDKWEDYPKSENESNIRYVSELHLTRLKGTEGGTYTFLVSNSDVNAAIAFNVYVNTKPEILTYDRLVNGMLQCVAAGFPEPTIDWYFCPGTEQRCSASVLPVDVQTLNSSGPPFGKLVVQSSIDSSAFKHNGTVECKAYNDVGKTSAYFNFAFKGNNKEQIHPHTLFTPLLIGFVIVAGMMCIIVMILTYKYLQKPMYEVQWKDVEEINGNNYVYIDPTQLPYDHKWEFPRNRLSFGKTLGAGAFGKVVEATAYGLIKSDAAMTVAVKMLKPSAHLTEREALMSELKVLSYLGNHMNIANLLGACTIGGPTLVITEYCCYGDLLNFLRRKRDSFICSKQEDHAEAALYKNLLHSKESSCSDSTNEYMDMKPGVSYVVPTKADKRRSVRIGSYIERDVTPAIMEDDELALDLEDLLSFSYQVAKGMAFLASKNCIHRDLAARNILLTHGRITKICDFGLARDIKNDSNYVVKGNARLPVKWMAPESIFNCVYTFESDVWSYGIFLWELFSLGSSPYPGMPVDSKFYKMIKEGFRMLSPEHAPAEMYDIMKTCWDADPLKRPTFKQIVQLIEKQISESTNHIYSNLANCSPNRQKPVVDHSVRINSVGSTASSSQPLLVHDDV

[5] = system: eIF-2-alpha kinase GCN2 (Homo sapiens), Q9P2K8 [S808G]; assay: Inhibition of GCN2 S808G mutant kinase domain 2 (unknown origin) assessed as remaining activity at 1 uM by Kinome scan method relative to control
Chain of eIF-2-alpha kinase GCN2 (Homo sapiens), Q9P2K8 [S808G] (Q9P2K8 whole entry S808G, the tested form may be a part): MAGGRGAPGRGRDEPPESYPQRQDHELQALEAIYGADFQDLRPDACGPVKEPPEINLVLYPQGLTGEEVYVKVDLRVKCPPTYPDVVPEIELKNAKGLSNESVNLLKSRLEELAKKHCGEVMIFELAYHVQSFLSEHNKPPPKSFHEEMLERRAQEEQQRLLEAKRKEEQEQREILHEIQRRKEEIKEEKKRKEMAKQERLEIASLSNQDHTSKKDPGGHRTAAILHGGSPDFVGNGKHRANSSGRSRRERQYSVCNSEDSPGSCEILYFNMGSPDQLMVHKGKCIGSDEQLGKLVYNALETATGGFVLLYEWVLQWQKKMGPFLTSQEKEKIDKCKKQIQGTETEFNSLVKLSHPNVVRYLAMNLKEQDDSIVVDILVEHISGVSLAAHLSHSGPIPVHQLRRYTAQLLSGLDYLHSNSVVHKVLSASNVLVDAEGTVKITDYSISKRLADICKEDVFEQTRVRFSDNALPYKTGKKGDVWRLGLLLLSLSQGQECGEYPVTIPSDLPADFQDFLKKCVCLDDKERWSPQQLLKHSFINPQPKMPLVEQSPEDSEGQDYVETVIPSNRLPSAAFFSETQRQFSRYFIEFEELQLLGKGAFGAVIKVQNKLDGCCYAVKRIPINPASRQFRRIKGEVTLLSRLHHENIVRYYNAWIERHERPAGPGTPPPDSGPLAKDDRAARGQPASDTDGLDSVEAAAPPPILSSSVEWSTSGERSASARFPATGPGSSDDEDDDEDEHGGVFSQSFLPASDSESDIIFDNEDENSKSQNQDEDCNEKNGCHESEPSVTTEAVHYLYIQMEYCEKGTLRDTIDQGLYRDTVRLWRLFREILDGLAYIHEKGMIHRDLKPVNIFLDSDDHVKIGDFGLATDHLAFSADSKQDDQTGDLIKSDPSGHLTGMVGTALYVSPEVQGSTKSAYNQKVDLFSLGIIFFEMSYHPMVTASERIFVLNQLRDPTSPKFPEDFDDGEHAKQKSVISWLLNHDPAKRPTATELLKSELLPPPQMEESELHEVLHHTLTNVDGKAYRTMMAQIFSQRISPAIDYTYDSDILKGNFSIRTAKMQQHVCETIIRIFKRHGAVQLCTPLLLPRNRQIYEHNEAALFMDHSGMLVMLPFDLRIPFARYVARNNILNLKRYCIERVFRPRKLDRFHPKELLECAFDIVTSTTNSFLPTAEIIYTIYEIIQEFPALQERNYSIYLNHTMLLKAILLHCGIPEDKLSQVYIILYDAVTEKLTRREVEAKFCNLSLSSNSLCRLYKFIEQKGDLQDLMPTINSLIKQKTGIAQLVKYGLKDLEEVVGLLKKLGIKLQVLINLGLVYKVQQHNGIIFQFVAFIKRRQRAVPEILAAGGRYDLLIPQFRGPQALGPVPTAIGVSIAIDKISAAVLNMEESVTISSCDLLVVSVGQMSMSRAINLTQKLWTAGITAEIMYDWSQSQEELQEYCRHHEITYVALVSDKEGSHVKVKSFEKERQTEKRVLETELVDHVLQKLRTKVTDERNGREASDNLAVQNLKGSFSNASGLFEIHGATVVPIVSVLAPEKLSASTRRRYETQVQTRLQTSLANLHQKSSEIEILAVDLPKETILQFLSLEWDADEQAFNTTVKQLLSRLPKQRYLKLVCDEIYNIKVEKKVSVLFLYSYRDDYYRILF

[6] = target: Homeodomain-interacting protein kinase 3 (Homo sapiens) (UniProt Q9H422); assay: Inhibition of human HIPK3 assessed as residual activity at 1 uM using RBER-CHKtide as substrate in presence of 33P-ATP by ProQinase assay relative to control
[7] = target: Casein kinase II subunit alpha' (Homo sapiens) (UniProt P19784); assay: Inhibition of human CK2alpha2 assessed as residual activity at 1 uM using casein as substrate in presence of 33P-ATP by ProQinase assay relative to control
Chain of Casein kinase II subunit alpha' (Homo sapiens) (P19784 whole entry, looked up): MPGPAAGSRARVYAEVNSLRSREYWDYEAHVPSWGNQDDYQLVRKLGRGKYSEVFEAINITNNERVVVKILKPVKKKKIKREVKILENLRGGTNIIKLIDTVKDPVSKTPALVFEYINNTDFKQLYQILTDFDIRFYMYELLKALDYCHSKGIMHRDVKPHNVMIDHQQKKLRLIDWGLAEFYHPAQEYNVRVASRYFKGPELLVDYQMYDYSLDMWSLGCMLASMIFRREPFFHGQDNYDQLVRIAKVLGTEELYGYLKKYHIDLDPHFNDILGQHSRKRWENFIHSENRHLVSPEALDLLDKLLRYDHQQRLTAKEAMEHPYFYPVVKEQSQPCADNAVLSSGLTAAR

[8] = target: T2, Mitogen-activated protein kinase kinase kinase kinase 2 (Homo sapiens) (UniProt Q12851); assay: Inhibition of human MAP4K2 assessed as residual activity at 1 uM using 3xChocktide-PKC as substrate in presence of 33P-ATP by ProQinase assay relative to control
T2 sequence (whole entry): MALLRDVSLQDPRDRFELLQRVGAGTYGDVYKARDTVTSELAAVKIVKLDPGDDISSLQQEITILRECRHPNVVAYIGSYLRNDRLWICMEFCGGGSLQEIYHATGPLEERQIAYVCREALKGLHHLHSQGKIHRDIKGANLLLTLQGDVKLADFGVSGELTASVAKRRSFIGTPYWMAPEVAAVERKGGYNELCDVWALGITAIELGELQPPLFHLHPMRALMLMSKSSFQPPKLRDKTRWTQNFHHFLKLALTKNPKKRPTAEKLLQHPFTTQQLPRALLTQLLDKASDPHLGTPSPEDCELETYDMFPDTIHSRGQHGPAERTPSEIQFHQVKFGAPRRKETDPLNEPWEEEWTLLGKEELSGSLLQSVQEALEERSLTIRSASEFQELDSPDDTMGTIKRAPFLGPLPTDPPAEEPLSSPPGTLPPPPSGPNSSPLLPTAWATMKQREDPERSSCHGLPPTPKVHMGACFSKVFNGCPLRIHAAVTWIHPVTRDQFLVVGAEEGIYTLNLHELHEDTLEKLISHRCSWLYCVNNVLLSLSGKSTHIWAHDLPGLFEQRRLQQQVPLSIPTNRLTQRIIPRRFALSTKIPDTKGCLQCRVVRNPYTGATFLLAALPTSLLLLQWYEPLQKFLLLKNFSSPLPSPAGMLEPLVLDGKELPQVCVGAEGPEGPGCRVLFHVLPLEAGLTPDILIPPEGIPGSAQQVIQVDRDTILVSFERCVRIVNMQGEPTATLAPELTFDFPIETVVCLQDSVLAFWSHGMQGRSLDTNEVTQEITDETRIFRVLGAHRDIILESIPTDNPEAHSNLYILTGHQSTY

[9] = target: Insulin-like growth factor 1 receptor (Homo sapiens) (UniProt P08069); assay: Inhibition of human IGF1R assessed as residual activity at 1 uM using polyEY as substrate in presence of 33P-ATP by ProQinase assay relative to control
[10] = target: Tyrosine-protein kinase SYK (Homo sapiens) (UniProt P43405); assay: Inhibition of SYK (unknown origin) assessed as remaining activity at 1 uM by Kinome scan method relative to control
[11] = system: Epidermal growth factor receptor (Homo sapiens), P00533 [G719S]; assay: Inhibition of EGFR G719S mutant (unknown origin) assessed as remaining activity at 1 uM by Kinome scan method relative to control
[12] = target: Cyclin-dependent kinase-like 3 (Homo sapiens) (UniProt Q8IVW4); assay: Inhibition of CDKL3 (unknown origin) assessed as remaining activity at 1 uM by Kinome scan method relative to control
[13] = target: STE20-like serine/threonine-protein kinase (Homo sapiens) (UniProt Q9H2G2); assay: Inhibition of SLK (unknown origin) assessed as remaining activity at 1 uM by Kinome scan method relative to control
[14] = target: Mitogen-activated protein kinase kinase kinase 5 (Homo sapiens) (UniProt Q99683); assay: Inhibition of human ASK1 assessed as residual activity at 1 uM using RBER-GSK3(14-27) as substrate in presence of 33P-ATP by ProQinase assay relative to control
Chain of Mitogen-activated protein kinase kinase kinase 5 (Homo sapiens) (Q99683 whole entry): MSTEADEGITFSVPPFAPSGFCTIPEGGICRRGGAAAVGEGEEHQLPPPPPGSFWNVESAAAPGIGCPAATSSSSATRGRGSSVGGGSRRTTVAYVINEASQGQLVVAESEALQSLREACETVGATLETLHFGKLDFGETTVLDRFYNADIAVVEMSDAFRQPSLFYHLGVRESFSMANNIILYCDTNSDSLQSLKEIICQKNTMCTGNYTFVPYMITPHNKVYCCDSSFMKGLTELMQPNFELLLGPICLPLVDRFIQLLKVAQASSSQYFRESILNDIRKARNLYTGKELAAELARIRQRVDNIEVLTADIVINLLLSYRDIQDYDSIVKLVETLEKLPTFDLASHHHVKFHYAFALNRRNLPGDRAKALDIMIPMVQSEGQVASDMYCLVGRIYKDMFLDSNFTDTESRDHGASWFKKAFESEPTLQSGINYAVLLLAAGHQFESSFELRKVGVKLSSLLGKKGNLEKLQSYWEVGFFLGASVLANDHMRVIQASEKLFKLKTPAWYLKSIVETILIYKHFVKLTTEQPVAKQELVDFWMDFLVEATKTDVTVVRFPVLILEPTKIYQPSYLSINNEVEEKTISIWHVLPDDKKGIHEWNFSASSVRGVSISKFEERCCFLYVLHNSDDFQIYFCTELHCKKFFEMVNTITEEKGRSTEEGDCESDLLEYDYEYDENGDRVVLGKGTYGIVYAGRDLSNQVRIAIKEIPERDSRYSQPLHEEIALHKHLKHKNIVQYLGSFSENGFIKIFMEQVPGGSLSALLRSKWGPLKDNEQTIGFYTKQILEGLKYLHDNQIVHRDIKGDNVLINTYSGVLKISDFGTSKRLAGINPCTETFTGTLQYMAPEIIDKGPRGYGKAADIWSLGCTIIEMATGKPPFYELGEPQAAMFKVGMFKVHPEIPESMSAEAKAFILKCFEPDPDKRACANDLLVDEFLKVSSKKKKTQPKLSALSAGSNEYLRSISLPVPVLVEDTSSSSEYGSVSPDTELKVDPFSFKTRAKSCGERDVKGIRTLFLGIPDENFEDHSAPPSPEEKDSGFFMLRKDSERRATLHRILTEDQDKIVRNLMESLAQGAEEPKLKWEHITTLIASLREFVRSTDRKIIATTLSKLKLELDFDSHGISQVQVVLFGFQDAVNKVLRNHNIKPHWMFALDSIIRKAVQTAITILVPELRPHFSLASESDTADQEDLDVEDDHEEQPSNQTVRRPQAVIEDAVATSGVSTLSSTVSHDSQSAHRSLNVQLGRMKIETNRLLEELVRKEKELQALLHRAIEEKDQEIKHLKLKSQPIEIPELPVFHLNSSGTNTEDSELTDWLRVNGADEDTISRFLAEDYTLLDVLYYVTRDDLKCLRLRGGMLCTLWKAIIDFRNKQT

[15] = Anti-inflammatory activity against human derived medium respond PBMC cells assessed as inhibition in stimulated IL-6 cytokine release incubated for 2 hrs in the presence of LPS/SEB/aCD28 by Luminex based sandwich immunoassay; type: functional, cell-based

Chain of Serine/threonine-protein kinase 4 (Homo sapiens) (Q13043 whole entry, the tested form may be a part): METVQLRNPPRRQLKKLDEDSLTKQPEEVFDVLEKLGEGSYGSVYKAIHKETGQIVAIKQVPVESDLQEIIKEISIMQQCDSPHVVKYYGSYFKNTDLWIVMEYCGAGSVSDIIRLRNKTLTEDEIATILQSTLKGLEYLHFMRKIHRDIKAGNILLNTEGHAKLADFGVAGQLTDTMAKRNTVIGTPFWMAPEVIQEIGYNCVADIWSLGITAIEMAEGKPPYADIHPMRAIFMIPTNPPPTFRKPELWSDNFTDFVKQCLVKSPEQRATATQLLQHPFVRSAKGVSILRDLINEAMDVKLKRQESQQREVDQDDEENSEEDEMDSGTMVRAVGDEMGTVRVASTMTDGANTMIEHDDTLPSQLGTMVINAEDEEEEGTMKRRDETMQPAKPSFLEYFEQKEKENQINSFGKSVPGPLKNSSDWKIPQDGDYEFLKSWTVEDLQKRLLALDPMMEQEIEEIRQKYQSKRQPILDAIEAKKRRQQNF

Which Activity [1] does the source give for `O=C1c2ccc(Nc3ccc(F)cc3F)cc2CCc2ccc(OC[C@H](O)CO)cc21` [Skepinone-L] here?
The Activity was 71%.

And the Activity [2]?
Its Activity is 94%.

And the Activity [3]?
Its Activity is 94%.

And the Activity [4]?
The Activity was 100%.

What about the Activity [5] of the same compound?
The Activity was 100%.

What about the Activity [6] of the same compound?
Its Activity is 91%.

What about the Activity [7] of the same compound?
Its Activity is 87%.

What about the Activity [8] of the same compound?
Its Activity is 89%.

What about the Activity [9] of the same compound?
The Activity was 98%.

What about the Activity [10] of the same compound?
Its Activity is 100%.

What about the Activity [11] of the same compound?
Its Activity is 94%.

What about the Activity [12] of the same compound?
The Activity was 78%.

And the Activity [13]?
Its Activity is 100%.

What about the Activity [14] of the same compound?
The Activity was 103%.

What about the IC50 [15] of the same compound?
Its IC50 is 780 nM.
